Laboratory results reported in patent publication US20220054432A1, “COMPOSITION FOR INCREASING RETENTION OF CAROTENOID IN BLOOD” (ENEOS Corporation, priority 2018, published 2022).

Assay: Retention in blood: carotenoid concentration in serum of cynomolgus monkeys (Test Example 3)
Format: in vivo
Details: cynomolgus monkey, 50 mg/kg intragastric once daily for 10 days, serum 4 hours after last administration
Procedure: As experimental animals, cynomolgus monkeys were used. Two cynomolgus monkeys were used, and an adonixanthin dosing solution was administered to one monkey (adonixanthin-administering monkey), while an astaxanthin dosing solution was administered to the other monkey (astaxanthin-administering monkey). As the dosing solutions, the dosing solutions obtained in Preparation Example 2 were used, and the dosing solutions at a dose such that the dose of adonixanthin or astaxanthin was 50 mg/kg body weight were administered once daily for 10 days (the day of initiation of administration of the dosing solutions was defined as day 1). […] The dose in each administration was calculated based on the latest body weight at each administration time point (the body weight was measured on the day of initiation of acclimation, the day of end of acclimation, the day of initiation of administration, and before administration on day 8 of administration using an electric balance (HP-40K or GP-40K, both of which are manufactured by A&D Company, Limited)). […] Regarding each serum 4 hours after the last administration of the dosing solutions, each of the concentration of adonixanthin in serum collected from the adonixanthin-administering monkey and the concentration of astaxanthin in serum collected from the astaxanthin-administering monkey was measured. […]

| Structure (SMILES) | Concentration in serum, FIG. 3 |
| --- | --- |
| CC1=C(/C=C/C(C)=C/C=C/C(C)=C/C=C/C=C(C)/C=C/C=C(C)/C=C/C2=C(C)C(=O)C(O)CC2(C)C)C(C)(C)CC(O)C1=O (stereo not drawn) [astaxanthin, 3,3′-dihydroxy-β,β-carotene-4,4′-dione] | exist in serum at a high concentration |
| CC1=C(/C=C/C(C)=C/C=C/C(C)=C/C=C/C=C(C)/C=C/C=C(C)/C=C/C2=C(C)C(=O)C(O)CC2(C)C)C(C)(C)CC(O)C1 (stereo not drawn) [adonixanthin, 3,3′-dihydroxy-β,β-caroten-4-one] | especially likely to be retained in blood |
